Starred links: 1 amine or outer side, 2 acyl side, 3 side chain; linkers in the order of their positions; H or OH if unused. Non-standard residues stand in square brackets, D forms with d. Residues, ends and D or L forms follow the SMILES beside them. *: point of attachment. X1 = O=C([C@H](Cc1ccc(O)c(Cc2ccccc2)c1)N[*:1])[*:2]; Bpa = N[C@@H](Cc1ccc(C(=O)c2ccccc2)cc1)C(=O)O; Bip = N[C@@H](Cc1ccc(-c2ccccc2)cc1)C(=O)O; 1Nal = N[C@@H](Cc1cccc2ccccc12)C(=O)O; 2Nal = N[C@@H](Cc1ccc2ccccc2c1)C(=O)O; Bn = c1ccc(C*)cc1

The results in this text go back to ChEMBL document CHEMBL1138929, “Development of peptidic dopamine transporter inhibitors via aromatic modification-mediated conformational restriction” (J Med Chem, 2006).

Data set [1] deals with T1, Sodium-dependent dopamine transporter (Rattus norvegicus, UniProt P23977). The experiment in a line: Inhibition of rat DAT-mediated [3H]dopamine uptake in CHO cells. The data set is classed as cell-based.
Data set [2] concerns Mus musculus. Nature of the data set: Effect on 10 mg/kg cocaine-induced place preference in BALB/c mouse at 10 mg/kg, sc measured as pre and procondition time difference. The data set is classed as functional.
Data set [3] deals with Mus musculus. Nature of the data set: Effect on cocaine-induced place preference in BALB/c mouse at 10 mg/kg, sc measured as pre and procondition time difference. The data set is classed as functional. Conditions: route subcutaneous.
Data set [4] relates to Mus musculus. The experiment in a line: Effect on place preference in BALB/c mouse at 20 mg/kg, sc measured as pre and procondition time difference. The data set is classed as functional. Conditions: route subcutaneous.
The target of data set [5] is Sodium-dependent serotonin transporter (Rattus norvegicus, UniProt P31652). The experiment in a line: Inhibition of rat SERT-mediated serotonin uptake in CHO cells. The data set is classed as cell-based.
For data set [6], the target named is Sodium- and chloride-dependent GABA transporter 1 (Mus musculus, UniProt P31648). Nature of the data set: Inhibition of mouse GAT1-mediated gamma-aminobutyric acid uptake in CHO cells. The data set is classed as cell-based.
Data set [7] addresses Sodium-dependent noradrenaline transporter (Rattus norvegicus) (UniProt P31652). Nature of the data set: Inhibition of rat NET-mediated norepinephrine uptake in CHO cells. Conditions: cho.
The target in data set [8] is Sodium-dependent noradrenaline transporter, Rattus norvegicus. The description is as above.
Data set [9] has as its target T1, Sodium-dependent dopamine transporter. The experiment in a line: Inhibition of [3H]WIN-35428 binding to rat DAT expressed in D8 cells. The data set is classed as cell-based.
In data set [10] the test system is Mus musculus. Nature of the data set: Effect on place preference in BALB/c mouse at 10 mg/kg measured as pre and procondition time difference. The data set is classed as functional.
Substrate in data set [11]: CC(c1ccc(-c2ccc(C[C@H](N)C(=O)O)cc2)cc1)[C@H](N)C(=O)N[C@@H](Cc1ccc(O)cc1)C(=O)N[C@H](C(=O)N1CCC[C@H]1C(=O)N[C@H](C(=O)NCC(=O)O)[C@@H](C)OCc1ccccc1)[C@@H](C)O
Conditions: Rattus norvegicus; D8; 250 nM.
Description: Inhibition of rat DAT-mediated [3H]dopamine accumulation in D8 cells at 250 nM

Substrate in data set [12]: CC(c1ccc(-c2ccc(C[C@H](N)C(=O)O)cc2)cc1)[C@H](N)C(=O)N[C@@H](Cc1ccc(O)cc1)C(=O)N[C@H](C(=O)N1CCC[C@H]1C(=O)N[C@H](C(=O)NCC(=O)O)[C@@H](C)OCc1ccccc1)[C@@H](C)O
Description: Inhibition of rat DAT-mediated [3H]dopamine accumulation in D8 cells at 600 nM
Particulars: Rattus norvegicus; D8; 600 nM.

Chain of Sodium-dependent serotonin transporter (P31652 whole entry): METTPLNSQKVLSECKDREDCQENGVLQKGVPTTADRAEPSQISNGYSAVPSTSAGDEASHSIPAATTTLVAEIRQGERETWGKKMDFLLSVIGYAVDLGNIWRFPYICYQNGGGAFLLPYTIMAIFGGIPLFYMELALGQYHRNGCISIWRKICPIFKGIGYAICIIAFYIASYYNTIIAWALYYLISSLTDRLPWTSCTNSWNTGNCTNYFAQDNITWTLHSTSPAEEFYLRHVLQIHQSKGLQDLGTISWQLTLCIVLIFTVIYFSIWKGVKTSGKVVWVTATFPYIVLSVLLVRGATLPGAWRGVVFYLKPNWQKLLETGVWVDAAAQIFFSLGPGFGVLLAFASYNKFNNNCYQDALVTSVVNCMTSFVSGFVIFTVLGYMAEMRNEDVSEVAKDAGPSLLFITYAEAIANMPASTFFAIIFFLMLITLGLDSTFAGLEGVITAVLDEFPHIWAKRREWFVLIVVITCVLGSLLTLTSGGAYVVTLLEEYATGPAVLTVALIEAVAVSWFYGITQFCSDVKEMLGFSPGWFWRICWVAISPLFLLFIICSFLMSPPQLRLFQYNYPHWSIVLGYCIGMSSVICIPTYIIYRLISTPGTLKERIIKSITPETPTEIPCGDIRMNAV
Chain of Sodium-dependent noradrenaline transporter (Rattus norvegicus) (P31652 whole entry, looked up): as the sequence (P31652 whole entry) above

One may read the IC50 as the concentration that gives 50% inhibition. The low end stands for higher potency, the high end for lower potency. For the molecule `C[C@@H](O)[C@H](NC(=O)[C@H](CCCCN)NC(=O)[C@@H]1CCCN1C(=O)[C@@H](NC(=O)[C@H](Cc1ccc(O)cc1)NC(=O)[C@H](Cc1ccccc1)NC(=O)[C@@H](N)Cc1ccccc1)[C@@H](C)O)C(=O)O` (H-FFYTPKT-OH), in data set [1], the IC50 is greater than 1000 µM.

Consider `C[C@@H](O)[C@H](NC(=O)[C@H](Cc1ccc(O)cc1)NC(=O)[C@@H](N)Cc1cccc2ccccc12)C(=O)N1CCC[C@H]1C(=O)N[C@@H](CCCCN)C(=O)N[C@H](C(=O)NCC(=O)O)[C@@H](C)OCc1ccccc1` (H-[1Nal]YTPKT(Bn)G-OH), for which the IC50 in [1] was determined as 199 µM.

Molecule `C[C@@H](O)[C@H](NC(=O)[C@H](Cc1ccc(O)cc1)NC(=O)[C@@H](N)Cc1ccc2ccccc2c1)C(=O)N1CCC[C@H]1C(=O)N[C@@H](CCCCN)C(=O)N[C@H](C(=O)NCC(=O)O)[C@@H](C)OCc1ccccc1` (H-[2Nal]YTPKT(Bn)G-OH) yielded an IC50 in data set [1] of 184 µM.

Turning to `C[C@H](NC(=O)[C@@H](N)Cc1ccc(-c2ccccc2)cc1)C(=O)N[C@H](C(=O)N1CCC[C@H]1C(=O)N[C@@H](CCCCN)C(=O)N[C@H](C(=O)NCC(=O)O)[C@@H](C)OCc1ccccc1)[C@@H](C)O` (H-[Bip]ATPKT(Bn)G-OH), the IC50 in data set [1] (cho) stood at 173 µM.

Regarding `C[C@H](NC(=O)[C@H](Cc1ccc(O)cc1)NC(=O)[C@@H](N)Cc1ccc(-c2ccccc2)cc1)C(=O)N1CCC[C@H]1C(=O)N[C@@H](CCCCN)C(=O)N[C@H](C(=O)NCC(=O)O)[C@@H](C)OCc1ccccc1` (H-[Bip]YAPKT(Bn)G-OH), the IC50 in data set [1] (cho) stood at 11 µM.

`C[C@@H](O)[C@H](NC(=O)[C@H](CCCCN)NC(=O)[C@@H]1CCCN1C(=O)[C@@H](NC(=O)[C@H](Cc1ccc(O)cc1)NC(=O)[C@@H](N)Cc1ccc(-c2ccccc2)cc1)[C@@H](C)OCc1ccccc1)C(=O)NCC(=O)O` (H-[Bip]YT(Bn)PKTG-OH): in data set [1] (cho), half-maximal inhibition (IC50) was put at 20 µM.

On to `C[C@H](NC(=O)[C@@H](NC(=O)[C@H](Cc1ccc(O)cc1)NC(=O)[C@@H](N)Cc1ccc(-c2ccccc2)cc1)[C@@H](C)O)C(=O)N[C@@H](CCCCN)C(=O)N[C@H](C(=O)NCC(=O)O)[C@@H](C)OCc1ccccc1` (H-[Bip]YTAKT(Bn)G-OH), for which the IC50 in data set [1] (cho) was greater than 1000 µM.

`C[C@H](NC(=O)[C@@H](NC(=O)[C@H](Cc1ccc(O)cc1)NC(=O)[C@@H](N)Cc1ccc(-c2ccccc2)cc1)[C@@H](C)O)C(=O)N[C@H](C(=O)NCC(=O)O)[C@@H](C)OCc1ccccc1` (H-[Bip]YTAT(Bn)G-OH) [listing 1 of 2 here] yielded an IC50 in data set [1] (cho) greater than 1000 µM.

Consider `C[C@H](NC(=O)[C@@H](NC(=O)[C@H](Cc1ccc(O)cc1)NC(=O)[C@@H](N)Cc1ccc(-c2ccccc2)cc1)[C@@H](C)O)C(=O)N[C@H](C(=O)NCC(=O)O)[C@@H](C)OCc1ccccc1` (H-[Bip]YTAT(Bn)G-OH) [listing 2 of 2 here], for which the results for the Activity with Mus musculus [2], with Mus musculus [3] and in the data set on Mus musculus [4] were 200 s, 209 s and -14 s, respectively.

For the molecule `C[C@H](NC(=O)[C@@H]1CCCN1C(=O)[C@@H](NC(=O)[C@H](Cc1ccc(O)cc1)NC(=O)[C@@H](N)Cc1ccc(-c2ccccc2)cc1)[C@@H](C)O)C(=O)N[C@H](C(=O)NCC(=O)O)[C@@H](C)OCc1ccccc1` (H-[Bip]YTPAT(Bn)G-OH), half-maximal inhibition in data set [1] (cho) (IC50) required 1.7 µM.

In turn, `C[C@@H](O)[C@H](NC(=O)[C@H](Cc1ccc(O)cc1)NC(=O)[C@@H](N)Cc1ccc(-c2ccccc2)cc1)C(=O)N1CCC[C@H]1C(=O)N[C@@H](CCCCN)C(=O)N[C@H](C(=O)NCC(=O)O)[C@@H](C)OCc1ccccc1` (H-[Bip]YTPKT(Bn)G-OH) showed an IC50 in [1] (cho) of 1.8 µM.

Take `C[C@@H](O)[C@H](NC(=O)[C@H](CCCCN)NC(=O)[C@@H]1CCCN1C(=O)[C@@H](NC(=O)[C@H](Cc1ccc(O)cc1)NC(=O)[C@@H](N)Cc1ccc(-c2ccccc2)cc1)[C@@H](C)O)C(=O)O` (H-[Bip]YTPKT-OH): the IC50 in [5] (cho) was greater than 1000 µM; in data set [1] (cho), 19 µM; in data set [6] (cho), greater than 1000 µM; in data set [7], greater than 1000 µM.

In the case of `C[C@@H](O)[C@H](NC(=O)[C@H](Cc1ccc(O)cc1)NC(=O)[C@@H](N)Cc1ccc(-c2ccccc2)cc1)C(=O)N1CCC[C@H]1C(=O)N[C@H](C(=O)NCC(=O)O)[C@@H](C)OCc1ccccc1` (H-[Bip]YTPT(Bn)G-OH) [listing 1 of 2 here], the IC50 in data set [5] was 110 µM; in data set [1], 0.3 µM; in [6], greater than 1000 µM; in data set [8], 90 µM; in data set [9], 0.494 µM.

Turning to `C[C@@H](O)[C@H](NC(=O)[C@H](Cc1ccc(O)cc1)NC(=O)[C@@H](N)Cc1ccc(-c2ccccc2)cc1)C(=O)N1CCC[C@H]1C(=O)N[C@H](C(=O)NCC(=O)O)[C@@H](C)OCc1ccccc1` (H-[Bip]YTPT(Bn)G-OH) [listing 2 of 2 here], the Activity with Mus musculus [2] is 78 s; with Mus musculus [3], 61 s; in the data set on Mus musculus [4], -16 s.

For `C[C@@H](O)[C@H](NC(=O)[C@H](CCCCN)NC(=O)[C@@H]1CCCN1C(=O)[C@@H](NC(=O)[C@H](Cc1ccc(O)c(Cc2ccccc2)c1)NC(=O)[C@@H](N)Cc1ccc(-c2ccccc2)cc1)[C@@H](C)O)C(=O)O` (H-[Bip][X1]TPKT-OH), the IC50 in [1] (cho) was found to be 10 µM.

Consider `C[C@@H](O)[C@H](NC(=O)[C@H](Cc1ccc(O)cc1)NC(=O)[C@@H](N)Cc1ccc(C(=O)c2ccccc2)cc1)C(=O)N1CCC[C@H]1C(=O)N[C@@H](CCCCN)C(=O)N[C@H](C(=O)NCC(=O)O)[C@@H](C)OCc1ccccc1` (H-[Bpa]YTPKT(Bn)G-OH), for which it took 239 µM to reach half-maximal inhibition in [1] (IC50).

Turning to `COC(=O)[C@H]1[C@@H](OC(=O)c2ccccc2)C[C@@H]2CC[C@H]1N2C` [COCAINE], the Activity with Mus musculus [10] was 194 s.

B1: Sodium-dependent dopamine transporter (Rattus norvegicus), P23977 (protein)
chain: MSKSKCSVGPMSSVVAPAKESNAVGPREVELILVKEQNGVQLTNSTLINPPQTPVEAQERETWSKKIDFLLSVIGFAVDLANVWRFPYLCYKNGGGAFLVPYLLFMVIAGMPLFYMELALGQFNREGAAGVWKICPVLKGVGFTVILISFYVGFFYNVIIAWALHYFFSSFTMDLPWIHCNNTWNSPNCSDAHASNSSDGLGLNDTFGTTPAAEYFERGVLHLHQSRGIDDLGPPRWQLTACLVLVIVLLYFSLWKGVKTSGKVVWITATMPYVVLTALLLRGVTLPGAMDGIRAYLSVDFYRLCEASVWIDAATQVCFSLGVGFGVLIAFSSYNKFTNNCYRDAIITTSINSLTSFSSGFVVFSFLGYMAQKHNVPIRDVATDGPGLIFIIYPEAIATLPLSSAWAAVFFLMLLTLGIDSAMGGMESVITGLVDEFQLLHRHRELFTLGIVLATFLLSLFCVTNGGIYVFTLLDHFAAGTSILFGVLIEAIGVAWFYGVQQFSDDIKQMTGQRPNLYWRLCWKLVSPCFLLYVVVVSIVTFRPPHYGAYIFPDWANALGWIIATSSMAMVPIYATYKFCSLPGSFREKLAYAITPEKDHQLVDRGEVRQFTLRHWLLL
In general, Km refers to the substrate concentration at which the rate is half of its maximum. B1: the Km in [11] is 2.42 µM; in [12], 3.6 µM.
